Test results: patent US4902690A, “Pest controlling compositions” (The General Hospital Corporation, priority 1988, dated 1990)
Several values for one entry are separate records, joined by “and”; a condition that tells them apart may be missing. Identical values can stand only once. Like-named read-outs stand apart in the source and are kept apart here.

Legend:
[1] = system: octopamine-sensitive adenylate cyclase (firefly lantern octopamine receptor); assay: Octopamine-sensitive adenylate cyclase activation, firefly light organ broken cell preparation; type: biochemical, firefly (Photinus pyralis)
[2] = system: tobacco hornworms (Manducca sexta); assay: In vivo leaf test (feeding on sprayed tomato leaves); conditions: for effect of adding IBMX on antifeeding / pesticidal activity of the compound: IBMX 0.1%, FIGS. 9, 10, 17, Tables 4, 7, 8, FIG. 9 at 72 hours
Manducca eggs = assay: Ovacidal test (eggs dipped in drug solutions); type: in vivo, Manducca sexta
Description: In some cases, test agents were tested for ovacidal activity by dipping groups of 10-50 Manducca eggs in drug solutions for 60 seconds and then determining the percentage of eggs which produced viable larvae. A compound or synergist with active ovacidal activity was one which decreased the percentage of eggs hatched, relative to control.

[3] = Table 1, phenylethylamines, >1 = better than (±)-p-octopamine
[4] = Table 1, phenylethylamines, maximal activation as % of that by (±)-p-octopamine, N.A. = No Activity
[5] = agonist 1 gm/100 ml + PDE Inhibitor IBMX 0.1 g/100 ml
[6] = agonist 1 gm/100 ml, No PDE Inhibitor
[7] = agonist 10^-1 gm/100 ml + PDE Inhibitor IBMX 0.1 g/100 ml
[8] = agonist 10^-1 gm/100 ml, No PDE Inhibitor
[9] = agonist 10^-2 gm/100 ml + PDE Inhibitor IBMX 0.1 g/100 ml
[10] = agonist 10^-2 gm/100 ml, No PDE Inhibitor
[11] = Table 2, clonidines, N.A. = no activity
[12] = Table 2, inhibitory properties at the octopamine receptor
[13] = agonist 10^-3 gm/100 ml + PDE Inhibitor IBMX 0.1 g/100 ml
[14] = agonist 10^-3 gm/100 ml, No PDE Inhibitor
[15] = agonist 0.3 (3 × 10^-1) gm/100 ml + PDE Inhibitor IBMX 0.1 g/100 ml
[16] = agonist 0.3 (3 × 10^-1) gm/100 ml, No PDE Inhibitor

In the case of `NCC(O)c1cccc(O)c1` (racemic) [(±)-m-octopamine], the “Ka^oct /Ka^B ratio” value [1, 3] is reported as 0.1, the “Vmax (% OCT)” value [1, 4] is reported as 9 ± 1 % OCT and the “effect of adding IBMX on antifeeding / pesticidal activity of the compound” value [2] is reported as “failed to increase pesticidal activity”.

For `CNCC(O)c1ccc(O)cc1` (racemic) [(±)-Nmethyloctopamine], the “Ka^oct /Ka^B ratio” value [1, 3] was 1.8, the “Vmax (% OCT)” value [1, 4] was 108 ± 10 % OCT and the “% Leaf Remaining” value [2, 5] was 90%. For the same molecule, the “% Leaf Remaining” value [2, 6] was 30%, the “% Leaf Remaining” value [2, 7] was 55% and the “% Leaf Remaining” value [2, 8] was under 5%. The “% Leaf Remaining” value [2, 9] was 42% and the “% Leaf Remaining” value [2, 10] was under 5%.

`CNCCc1ccc(O)c(O)c1` [Nmethyldopamine] was tested, and the “Ka^oct /Ka^B ratio” value [1, 3] was 0.19 and the “Vmax (% OCT)” value [1, 4] was 11 ± 1 % OCT.

For `NCC(O)c1ccccc1O` (racemic) [(±)-o-octopamine], the “Ka^oct /Ka^B ratio” value [1, 3] was 0.05 and the “Vmax (% OCT)” value [1, 4] was 23 ± 1 % OCT.

`CN(C)CC(O)c1ccc(O)cc1` (racemic) [(±)-N,Ndimethyloctopamine] was tested, and the “Ka^oct /Ka^B ratio” value [1, 3] was 0.9 and the “Vmax (% OCT)” value [1, 4] was 43 ± 4 % OCT.

For `Nc1cc(Cl)c(N=C2NCCN2)c(Cl)c1` [NC 14], the “Ka^oct /Ka^B ratio” value [1, 11] was 0.7 and the Ki [1, 12] was 440 µM.

In the case of `COc1cc(C(O)CN)ccc1O` (racemic) [(±)-normetanephrine], the “Ka^oct /Ka^B ratio” value [1, 3] is reported as 0.07 and the “Vmax (% OCT)” value [1, 4] is reported as 68 ± 2 % OCT.

`Cc1cc(Cl)ccc1N=CN(C)C` [CDM, chlordimeform] was tested, and the “% Living Larvae” value (Manducca eggs; agonist 1 gm/100 ml + IBMX 0.1 g/100 ml) was 2%, the “% Living Larvae” value (Manducca eggs; [6]) was 2% and the “% Living Larvae” value (Manducca eggs; agonist 10^-1 gm/100 ml + IBMX 0.1 g/100 ml) was 10%. The “% Living Larvae” value (Manducca eggs; [8]) was 25%, the “% Living Larvae” value (Manducca eggs; agonist 10^-2 gm/100 ml + IBMX 0.1 g/100 ml) was 10% and the “% Living Larvae” value (Manducca eggs; [10]) was 60%. The Ka ratio ([1]; FIG. 1, formamidines) was 0.5, the Vmax ([1]; FIG. 1, formamidines, % of octopamine) was “about 10%” and the “% Leaf Remaining” value [2, 5] was 90%. The “% Leaf Remaining” value [2, 6] was 90%, the “% Leaf Remaining” value [2, 7] was 90% and the “% Leaf Remaining” value [2, 8] was 70%. For the same molecule, the “% Leaf Remaining” value [2, 9] was 85%, the “% Leaf Remaining” value [2, 10] was under 5% and the “% Leaf Remaining” value [2, 13] was 65%. The “% Leaf Remaining” value [2, 14] was under 5%, the “% Leaf Remaining” value ([2]; agonist 10^-4 gm/100 ml + PDE Inhibitor IBMX 0.1 g/100 ml) was 50% and the “% Leaf Remaining” value ([2]; agonist 10^-4 gm/100 ml, No PDE Inhibitor) was under 5%.

`CNC[C@H](O)c1ccc(O)c(O)c1` [(-)-epinephrine] was tested, and the “Ka^oct /Ka^B ratio” value [1] was 0.20 and the “Vmax (% OCT)” value ([1]; light organ homogenate) was 75 ± 2 % OCT.

`NCCc1ccccc1` [β-phenylethylamine] was tested, and the “Ka^oct /Ka^B ratio” value [1, 3] was 0.03 and the “Vmax (% OCT)” value [1, 4] was 13 ± 2 % OCT.

With `CN(C)c1cc(Cl)c(N=C2NCCN2)c(Cl)c1` [NC 15] the “Ka^oct /Ka^B ratio” value [1, 11] was 1.9.

With `NCCc1ccc(O)cc1` [tyramine] the “Ka^oct /Ka^B ratio” value [1, 3] was 0.15 and the “Vmax (% OCT)” value [1, 4] was 57 ± 1 % OCT.

In the case of `Clc1cc(Cl)c(N=C2NCCN2)cc1Cl` [NC 3], the “Ka^oct /Ka^B ratio” value [1, 11] is reported as 2.8.

With `NCC(O)c1ccc(Cl)cc1Cl` (stereo not shown) [2,4-dichlorophenylethanolamine] the “% Leaf Remaining” value [2, 5] was 80%, the “% Leaf Remaining” value [2, 6] was 10% and the “% Leaf Remaining” value [2, 7] was 50%. For the same molecule, the “% Leaf Remaining” value [2, 8] was under 5%, the “% Leaf Remaining” value [2, 9] was 30% and the “% Leaf Remaining” value [2, 10] was under 5%.

For `Clc1ccc(Cl)c(N=C2NCCN2)c1` [NC 2], the “Ka^oct /Ka^B ratio” value [1, 11] was 1.1 and the Ki [1, 12] was 23 µM.

In the case of `C[C@H](N)[C@H](O)c1ccccc1` (relative stereo) [(±)-norephedrine], the “Ka^oct /Ka^B ratio” value [1, 3] is reported as under 0.09 and the “Vmax (% OCT)” value [1, 4] is reported as 8 ± 1 % OCT.

For `CNC(C)C(O)c1ccc(O)cc1` (racemic) [(±)-α-methylsynephrine], the “Ka^oct /Ka^B ratio” value [1, 3] was under 0.01 and the “Vmax (% OCT)” value [1, 4] was 7 ± 2 % OCT.

`NC[C@H](O)c1ccc(O)cc1` [(-)-p-octopamine] was tested, and the “Vmax (% OCT)” value [1, 4] was 101 ± 2 % OCT.

For `Cc1cc(C)c(N=C2NCCN2)c(C)c1` [NC 13], the “Ka^oct /Ka^B ratio” value [1, 11] was 4.3.

`Nc1ncnc2c1nc(Sc1ccc(Cl)cc1)n2[C@@H]1O[C@@H]2COP(=O)(O)O[C@H]2[C@H]1O` [p-Cl-phenylthio cyclic AMP, 8-p-chlorophenylthio-cyclic AMP] was tested, and the “antifeeding activity in the absence of IBMX” value ([2]; concentration of 1%, FIGS. 18, 19) was “some antifeeding activity”.

For `NCCc1ccc(O)c(O)c1` [dopamine], the “Ka^oct /Ka^B ratio” value [1, 3] was 0.26 and the “Vmax (% OCT)” value [1, 4] was 4 ± 1 % OCT.

In the case of `Cc1cccc(C)c1N=C1NCCN1` [NC 4], the “Ka^oct /Ka^B ratio” value [1, 11] is reported as 0.41.

With `CCc1cccc(CC)c1N=C1NCCN1` [NC 5] the “Ka^oct /Ka^B ratio” value [1, 11] was 19.0 and ~20, the “effect of adding IBMX on antifeeding / pesticidal activity of the compound” value [2] was “substantial increases in the potency” and the “% Leaf Remaining” value [2, 15] was 70%. The “% Leaf Remaining” value [2, 16] was 40%, the “% Leaf Remaining” value [2, 7] was 45% and the “% Leaf Remaining” value [2, 8] was 30%. The “% Leaf Remaining” value [2, 9] was 30%, the “% Leaf Remaining” value [2, 10] was 15% and the “% Leaf Remaining” value [2, 13] was 17%. For the same molecule, the “% Leaf Remaining” value [2, 14] was 10%.

For `CN(CCCl)c1cc(Cl)c(N=C2NCCN2)c(Cl)c1` [NC 16], the Ki [1] was 10 µM and the “Ka^oct /Ka^B ratio” value [1, 11] was 4.8.

With `Brc1ccc(N=C2NCCN2)cc1` [NC 12] the “Ka^oct /Ka^B ratio” value [1, 11] was 3.0.

For `Clc1cc(Cl)c(N=C2NCCN2)c(Cl)c1` [NC 11], the “Ka^oct /Ka^B ratio” value [1, 11] was 1.9.

In the case of `Clc1cccc(Cl)c1N=C1NCCN1` [clonidine], the “Ka^oct /Ka^B ratio” value [1] is reported as 0.95, the Ki [1] is reported as 20 µM and the “effect of adding IBMX on antifeeding / pesticidal activity of the compound” value [2] is reported as “substantial increases in the potency”. For the same molecule, the “% Leaf Remaining” value [2, 5] was 63%, the “% Leaf Remaining” value [2, 6] was 65% and the “% Leaf Remaining” value [2, 7] was 55%. The “% Leaf Remaining” value [2, 8] was 20%, the “% Leaf Remaining” value [2, 9] was 55% and the “% Leaf Remaining” value [2, 10] was 5%.

In the case of `CC(C)NC[C@H](O)c1ccc(O)c(O)c1` [(-)-isoproterenol], the “Vmax (% OCT)” value [1, 4] is reported as 19 ± 1 % OCT.

With `NC[C@H](O)c1ccc(O)c(O)c1` [(-)-nonrepinephrine] the “Ka^oct /Ka^B ratio” value [1, 3] was 0.13 and the “Vmax (% OCT)” value [1, 4] was 72 ± 1 % OCT.

For `CC(N)Cc1ccc(O)cc1` (racemic) [(±)-p-hydroxyamphetamine], the “Ka^oct /Ka^B ratio” value [1, 3] was under 0.05 and the “Vmax (% OCT)” value [1, 4] was 8 ± 3 % OCT.

`Clc1ccc(N=C2NCCN2)c(Cl)c1` [NC 8] was tested, and the “Ka^oct /Ka^B ratio” value [1, 11] was 3.7.

`NCC(O)c1ccc(O)c(Cl)c1` (stereo not shown) [m-chloro-octopamine] was tested, and the “Ka^oct /Ka^B ratio” value [1, 3] was 0.28 and the “Vmax (% OCT)” value [1, 4] was 77 ± 1 % OCT.

For `Brc1cccc(Br)c1N=C1NCCN1` [NC 6], the “Ka^oct /Ka^B ratio” value [1, 11] was 2.1.

In the case of `CC(N)C(O)c1ccc(O)cc1` (racemic) [(±)-α-methyloctopamine], the “Ka^oct /Ka^B ratio” value [1, 3] is reported as 0.05 and the “Vmax (% OCT)” value [1, 4] is reported as 44 ± 2 % OCT.

With `CNC[C@H](O)c1cccc(O)c1` [(-)-phenylephrine] the “Ka^oct /Ka^B ratio” value [1, 3] was under 0.2 and the “Vmax (% OCT)” value [1, 4] was 17 ± 1 % OCT.

In the case of `NCC(O)c1ccc(F)cc1` (stereo not shown) [p-fluoro-phenylethanolamine], the “% Leaf Remaining” value [2, 15] is reported as 95%, the “% Leaf Remaining” value [2, 16] is reported as 25% and the “% Leaf Remaining” value [2, 7] is reported as 98%. For the same molecule, the “% Leaf Remaining” value [2, 9] was 80%, the “% Leaf Remaining” value [2, 13] was 50% and the “% Leaf Remaining” value [2, 14] was under 5%.

For `Cc1ccc(N=C2NCCN2)c(C)c1` [NC 9], the “Ka^oct /Ka^B ratio” value [1, 11] was 5.1.

In the case of `COc1ccc(CCN)cc1` [p-methoxphenylethylamine], the “Ka^oct /Ka^B ratio” value [1, 3] is reported as 0.10 and the “Vmax (% OCT)” value [1, 4] is reported as 6 ± 3 % OCT.

`c1ccc(N=C2NCCN2)cc1` [NC 10] was tested, and the Ki [1, 12] was 190 µM, the “antifeeding activity of the compound by itself” value ([2]; FIGS. 10, 13, 17, Table 8) was “inactive in vivo” and the “effect of adding IBMX on antifeeding / pesticidal activity of the compound” value [2] was “not synergized by the PDE inhibitor”. For the same molecule, the “% Leaf Remaining” value [2, 5] was 15%, the “% Leaf Remaining” value [2, 6] was 5% and the “% Leaf Remaining” value [2, 7] was 13%. The “% Leaf Remaining” value [2, 8] was 5%, the “% Leaf Remaining” value [2, 9] was 15% and the “% Leaf Remaining” value [2, 10] was 5%. For the same molecule, the “% Leaf Remaining” value [2, 13] was 12% and the “% Leaf Remaining” value [2, 14] was 5%.
